Key:
[1] = system: GM1b on the plasma membrane of OV2944 cells; assay: GM1b inhibition assay in relation to binding of partial peptide p6 to OV2944 cells; set-up: species or system mouse; details: 5 μM TMR-labeled p6
Experimental: Cultured OV2944 cells were fixed on a glass plate (4% paraformaldehyde/phosphate buffer, room temperature, 10 minutes), and treated with sheep serum. […] After washing, analysis was carried out using a confocal microscope (Carl Zeiss).
An experiment was carried out in the same manner as in Experimental Example 18-1 except that GM1b was absent.
Further, an experiment was carried out in the same manner as in Experimental Example 18-1 and Experimental Example 18-2 for cases where GM1b was used alone at a concentration of 0, 10, or 100 μM, where GT1c was used alone at a concentration of 100 μM, and where GM1b and GT1c were used in combination at a concentration of 100 μM each.

[2] = system: OV2944 cells; assay: Cell invasion assay (Matrigel Invasion Chamber); type: cell-based, mouse
Experimental: Cell invasion was analyzed using a BD BioCoat (registered trademark) Matrigel Invasion Chamber (Becton, Dickinson and Company). First, a certain amount of cells (about 1×10^5 cells/well) were treated with 2 μM, 8 μM, or 20 μM mouse dicalcin at room temperature for 20 minutes.
The treated cells were washed by centrifugation treatment, and then plated in the upper chamber of a transwell preliminarily coated with Matrigel, followed by performing culture using DMEM (+10% FBS) as a medium.
About 16 hours later, the invading cells that had migrated into the lower chamber were fixed using 4% paraformaldehyde/phosphate buffer at room temperature for 10 minutes, and then stained with crystal violet, followed by excision of the membrane, embedding on a slide, and counting of the cell number.

[3] = system: Erk1/2; assay: Suppression of Erk1/2 signaling (Western blotting, pErk/Erk); type: cell-based, mouse
Description: The OV2944 cells were extracted and sonicated, and then analyzed for the activity of Erk1/2 by Western blotting. An antibody (Cell Signaling) against Erk1/2 protein in the phosphorylated state (that is, the activated state) (pErk1/2), or an antibody (Santa Cruz) against total Erk1/2 protein including the protein in the phosphorylated state and the protein in the dephosphorylated state (Erk1/2), was used therefor. The ratio between pErk1/2 and Erk1/2 (pErk/Erk) in the Western blot image was calculated, and the data were normalized by taking the value at time 0 as 1.

[4] = system: OV2944 cells; assay: Cell migration assay; type: cell-based, mouse; details: 5 μM; versus p1 and no peptide
Experimental: The plasmid vector pDsRed2-C1 (Clontech), which expresses a fluorescent protein (DsRed2), was transfected into cells. […] The observation was carried out for 12 to 37 cells. Statistical analysis was carried out by unpaired Student t-test in order to analyze a significant difference.
An experiment was carried out in the same manner as in Experimental Example 8-1 except that no partial peptide was added.

[5] = system: OV2944 cells; assay: Analysis of survival after cell transfer (Kaplan Meier); type: in vivo, mouse
Experimental: (§1) The purified OV2944 cells expressing the fluorescent protein tdTomato were transferred into the abdominal cavity of mice (B6C3F1 strain, 9 weeks old, female, CLEA Japan, Inc.) (1×10^5 cells/mouse). […] On Day 21, the abdominal organs were removed, and OV2944 cells expressing the fluorescent protein tdTomato in the liver were observed using a fluorescence stereomicroscope OV110 (Olympus Corporation).
Intraperitoneal injection was carried out in the same manner as in Experimental Example 13-1 and Experimental Example 13-2, and survival analysis was carried out thereafter to provide Experimental Example 14-1 and Experimental Example 14-2. For the survival curve according to the Kaplan Meier method, a significant difference was analyzed by log-rank test.

[6] = system: OV2944 cells expressing the fluorescent protein tdTomato; assay: Observation of metastasis to liver after intraperitoneal cell transfer; type: in vivo, mouse; details: 3 nmoles/two days, Day 21, versus control peptide p1
Experimental: The plasmid vector ptdTomato-C1 (Clontech), which expresses the fluorescent protein tdTomato, was transfected into OV2944 cells, and, 24 to 48 hours later, the cells were suspended in phosphate buffer. Using a flow cytometer (FACS Aria, BD Biosciences), the OV2944 cells expressing the fluorescent protein tdTomato shown in FIG. 13A to FIG. 13C were purified.
as §1
FIG. 15-1B focuses on cell colonies. […] The number of colonies was counted, and a significant difference was analyzed by unpaired Student t-test.

[7] = system: OV2944 cells; assay: Cell binding experiment (fluorescently labeled protein/peptide, confocal microscope); set-up: species or system mouse
Experimental: The OV2944-HM-1 cell line (which may be referred to as “OV2944 cells” or, simply, “cells”), which is a commonly used cell line, was used. OV2944 cells were obtained from RIKEN BioResource Center (Cell No. RCB1483), and cultured in DMEM medium (+10% FBS) according to a conventional method.
Cultured cells were fixed on a glass plate (4% paraformaldehyde/phosphate buffer, room temperature, 10 minutes), and treated with sheep serum. Thereafter, mouse dicalcin (5 μM) fluorescently labeled with tetramethylrhodamine (TMR) was reacted with the cells in the presence of 1 mM CaCl2 (4° C., overnight). After washing with TBS buffer, analysis was carried out using a confocal microscope (Carl Zeiss). Further, cell nuclei were stained with DAPI.
An experiment was carried out in the same manner as in Experimental Example 1-1 except that the reaction was carried out in the presence of 1 mM EGTA (which may be referred to as “in the absence of calcium”).
An experiment was carried out in the same manner as in Experimental Example 1-1 except that immunostaining was carried out using an anti-mouse dicalcin antibody (Catalog No. MAB5167, R&D Systems) as a primary antibody, and an Alexa Fluor (registered trademark) 594-labeled anti-rat IgG antibody (Catalog No. A11007, Invitrogen) as a secondary antibody.
An experiment was carried out in the same manner as in Experimental Example 1-1 except that each of partial peptides p1 to p7 (5 μM) fluorescently labeled with rhodamine was used.

[8] = Glycolipid sugar chain array binding experiment; details: 5 μM fluorescently labeled, 4° C. overnight

partial peptide of mouse dicalcin, SEQ ID NO: 17, QLDFQEFLNLI (listed as Mus musculus) [p6]
binding to OV2944 cell / plasma membrane in presence of GM1b ([1]; GM1b in the medium (10, 100 μM)): remarkably decreased | binding ability to OV2944 cells in presence of GT1c ([1]; GT1c 100 μM): did not change | cell invasion, ranking of suppression ([2]; 8 μM each, versus 10 μM BSA): suppresses cell invasion at the highest level | cell invasion, concentration dependence ([2]; 0.2, 0.8, 2, 8, 20 μM): suppressed cell invasion in a concentration-dependent manner | Erk1/2 activity (pErk/Erk) ([3]; 5 μM p6 alone (absence of GM1b), 0-30 minutes): suppresses the Erk1/2 activity | Erk1/2 activity (pErk/Erk) with GM1b present ([3]; p6 and GM1b present): disappearance of the Erk-suppressing action | cell migration (migration distance) [4]: suppresses migration of the cells | increase in average number of days of survival ([5]; Experimental Example 14-1 relative to 14-2 (p1)): 21% | average number of days of survival ([5]; intraperitoneal, 3 nmoles/two days): 38.5 days | survival rate of mice ([5]; intraperitoneal, 3 nmoles/two days, versus control peptide p1, log-rank test): significantly suppresses a decrease in the survival rate | number of colonies in the liver [6]: significantly smaller | cell-binding ability (fluorescence intensity) ([7]; 5 μM rhodamine-labeled partial peptides, ranking): highest cell-binding ability | site of binding on cells ([7]; 5 μM, CD44 as plasma membrane control): binds to the plasma membranes of cells | target molecule candidate by binding to glycolipid sugar chains [8]: GM1b ganglioside was suggested

From patent US11696938B2, “Human cancer cell metastasis inhibitory agent and human cancer cell determination agent” (priority 2017, dated 2023)
